Results published in patent US20120295915A1, “AZABENZIMIDAZOLES AS FATTY ACID SYNTHASE INHIBITORS” (priority 2009, published 2012).

Biological target: FAS (Homo sapiens, UniProt P49327)
Assay: FAS assay (Assay #1 residual NADPH detection or Assay #2 CoA detection with CPM dye)
Type: biochemical
Settings: in at least one experimental run; tested generally according to the assays described (assay #1 or #2 not specified)
Procedure: FAS assay FAS activity was measured through one of the two following assays.
Inhibition of FAS activity can be measured based on the detection of residual NADPH substrate after the FAS assay is quenched. This assay is run as a 10 μL endpoint assay in 384-well format, where the reaction contains 20 μM malonyl-CoA, 2 μM acetyl-CoA, 30 μM NADPH and 40 nM FAS in 50 mM sodium phosphate, pH 7.0. The assay is run by sequentially dispensing 5 μl of a malonyl-CoA solution, then enzyme solution (containing the acetyl-CoA, and NADPH) into a black, low volume assay plate (Greiner 784076) pre-dispensed with […] compound solutions in DMSO. The reaction is incubated at ambient temperature for 60 minutes, then quenched with 5 μL of a developing solution composed of 90 μM resazurin, 0.3 IU/ml diaphorase in 50 mM sodium phosphate, pH 7.0. The developed reaction is read on a Molecular Devices Analyst or Acquest (or equivalent) plate reader using a 530 nm excitation wavelength filter, a 580 nm emission filter, and 561 nm dichroic filter. The test compounds are prepared in neat DMSO at a concentration of 10 mM. For inhibition curves, compounds are diluted using a three fold serial dilution and tested at 11 concentrations (e.g. 25 μM-0.42 nM). Curves are analysed using Activityl)ase and XLfit, and results are expressed as pIC50 values.
Inhibition of FAS can also be quantified based on the detection of the CoA products with a thio-reactive coumarin dye. This assay is run as a 10 μL endpoint assay in 384-well format, where the reaction contains 20 μM malonyl-CoA, 20 μM acetyl-CoA, 40 μM NADPH and 2 nM FAS in 50 mM sodium phosphate, pH 7.0, and 0.04% Tween-20. The assay is run by adding 5 μL enzyme solution to a black, low volume assay plate (Greiner 784076) pre-dispensed with 100 nl compound solutions in DMSO. After 30 minutes, 5 μL substrate is added, and the reaction incubated at ambient temperature for an additional 60 minutes. The reaction is then quenched with 10 μL of 6M guanidine-HCl containing 50 μM CPM (7-diethylamino-3-(4′-maleimidylphenyl)-4-methylcoumarin (CPM; thio-reactive dye), and incubated for 30 minutes. The plate is read on an Envision (PerkinElmer) or equivalent plate reader using a 380 nm excitation wavelength filter, and a 486 nm emission filter. Data fitting and compound preparations are done as described above.

FAS, sequence (P49327 whole entry): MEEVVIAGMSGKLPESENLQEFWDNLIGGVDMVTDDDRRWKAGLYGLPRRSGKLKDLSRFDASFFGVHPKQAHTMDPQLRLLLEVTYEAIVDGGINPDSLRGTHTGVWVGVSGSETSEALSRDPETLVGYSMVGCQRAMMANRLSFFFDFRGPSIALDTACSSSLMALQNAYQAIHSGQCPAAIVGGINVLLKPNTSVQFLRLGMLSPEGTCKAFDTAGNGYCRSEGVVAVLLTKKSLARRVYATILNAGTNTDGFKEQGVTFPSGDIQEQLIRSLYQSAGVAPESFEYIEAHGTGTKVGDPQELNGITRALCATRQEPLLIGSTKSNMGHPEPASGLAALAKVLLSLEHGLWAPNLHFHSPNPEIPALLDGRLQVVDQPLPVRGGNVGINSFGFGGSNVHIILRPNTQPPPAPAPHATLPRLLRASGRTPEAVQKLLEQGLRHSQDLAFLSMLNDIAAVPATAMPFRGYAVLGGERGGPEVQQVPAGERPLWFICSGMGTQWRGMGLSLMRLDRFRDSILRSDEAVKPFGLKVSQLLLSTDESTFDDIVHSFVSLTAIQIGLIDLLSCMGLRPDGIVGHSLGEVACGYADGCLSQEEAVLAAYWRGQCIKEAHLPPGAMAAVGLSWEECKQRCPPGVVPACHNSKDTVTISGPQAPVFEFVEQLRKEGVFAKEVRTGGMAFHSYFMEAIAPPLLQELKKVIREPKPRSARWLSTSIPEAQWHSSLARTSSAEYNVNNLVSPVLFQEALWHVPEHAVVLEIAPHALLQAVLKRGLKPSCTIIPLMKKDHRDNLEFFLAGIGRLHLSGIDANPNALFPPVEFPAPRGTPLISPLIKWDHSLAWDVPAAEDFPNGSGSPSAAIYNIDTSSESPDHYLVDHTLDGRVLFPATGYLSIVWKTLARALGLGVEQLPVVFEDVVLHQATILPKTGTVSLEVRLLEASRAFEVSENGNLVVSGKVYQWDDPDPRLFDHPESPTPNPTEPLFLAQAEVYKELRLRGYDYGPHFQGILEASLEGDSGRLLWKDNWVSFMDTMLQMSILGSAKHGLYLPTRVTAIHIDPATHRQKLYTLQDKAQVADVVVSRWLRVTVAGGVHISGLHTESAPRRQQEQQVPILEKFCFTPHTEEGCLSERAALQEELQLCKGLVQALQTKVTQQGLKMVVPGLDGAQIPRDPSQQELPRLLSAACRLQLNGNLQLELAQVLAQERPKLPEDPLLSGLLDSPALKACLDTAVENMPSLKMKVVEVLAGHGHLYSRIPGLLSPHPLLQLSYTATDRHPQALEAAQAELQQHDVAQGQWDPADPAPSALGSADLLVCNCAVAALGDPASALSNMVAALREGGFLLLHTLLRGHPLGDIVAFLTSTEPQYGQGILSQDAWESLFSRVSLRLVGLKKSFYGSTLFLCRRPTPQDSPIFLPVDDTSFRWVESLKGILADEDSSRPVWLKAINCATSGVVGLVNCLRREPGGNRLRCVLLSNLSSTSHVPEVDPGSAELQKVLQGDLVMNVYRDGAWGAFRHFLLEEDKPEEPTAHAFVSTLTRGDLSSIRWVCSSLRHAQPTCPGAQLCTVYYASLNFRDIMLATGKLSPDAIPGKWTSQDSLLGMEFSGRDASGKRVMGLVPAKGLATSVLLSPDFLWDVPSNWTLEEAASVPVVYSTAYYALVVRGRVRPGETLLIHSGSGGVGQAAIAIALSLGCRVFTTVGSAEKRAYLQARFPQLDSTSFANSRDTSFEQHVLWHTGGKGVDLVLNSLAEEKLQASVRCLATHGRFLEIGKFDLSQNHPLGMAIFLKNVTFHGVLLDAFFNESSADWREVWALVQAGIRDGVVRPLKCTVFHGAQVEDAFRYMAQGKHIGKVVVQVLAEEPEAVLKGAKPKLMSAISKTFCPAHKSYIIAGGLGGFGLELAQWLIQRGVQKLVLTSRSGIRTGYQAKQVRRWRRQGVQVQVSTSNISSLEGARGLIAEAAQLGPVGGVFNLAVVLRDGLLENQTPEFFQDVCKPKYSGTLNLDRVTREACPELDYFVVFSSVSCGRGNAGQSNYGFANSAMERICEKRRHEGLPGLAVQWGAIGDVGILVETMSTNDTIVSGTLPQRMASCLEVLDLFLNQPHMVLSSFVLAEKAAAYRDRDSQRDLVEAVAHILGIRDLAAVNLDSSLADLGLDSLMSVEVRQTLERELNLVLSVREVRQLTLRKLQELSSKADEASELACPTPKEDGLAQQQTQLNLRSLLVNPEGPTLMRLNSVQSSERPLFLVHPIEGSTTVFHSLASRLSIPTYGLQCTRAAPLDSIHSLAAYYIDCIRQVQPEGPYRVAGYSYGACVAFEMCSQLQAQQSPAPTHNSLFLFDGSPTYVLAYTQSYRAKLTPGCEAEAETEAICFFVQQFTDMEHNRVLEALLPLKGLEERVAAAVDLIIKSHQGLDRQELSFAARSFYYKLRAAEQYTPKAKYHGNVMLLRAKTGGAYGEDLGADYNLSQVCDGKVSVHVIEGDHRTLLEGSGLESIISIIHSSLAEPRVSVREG

Row | Compound | IC50
1 | CN(C)C(=O)N1CC[C@@H](Cn2c(-c3ccc(-c4ccccc4)cc3)nc3cnccc32)C1 [Example 19, (3S)-3-{[2-(4-biphenylyl)-1H-imidazo[4,5-c]pyridin-1-yl]methyl}-N,N-dimethyl-1-pyrrolidinecarboxamide] | 1060 nM
2 | O=C(C1CC1)N1CC[C@@H](Cn2c(-c3ccc(-c4ccc5occc5c4)cc3)nc3cnccc32)C1 [Example 22, 2-[4-(1-benzofuran-5-yl)phenyl]-1-{[(3S)-1-(cyclopropylcarbonyl)-3-pyrrolidinyl]methyl}-1H-imidazol[4,5-c]pyridine] | 60 nM
3 | Cc1cccc(-c2ccc(-c3nc4ncccc4n3C[C@@H]3CCN(C(=O)C4CC4)C3)cc2)c1 [Example 2, 1-{[(3S)-1-(cyclopropylcarbonyl)-3-pyrrolidinyl]methyl}-2-(3′-methyl-4-biphenylyl)-1H-imidazo[4,5-b]pyridine] | 63 nM
4 | O=C(C1CC1)N1CC[C@@H](Cn2c(-c3ccc(-c4cnc5[nH]ccc5c4)cc3)nc3cnccc32)C1 [Example 54, 1-{[(3S)-1-(cyclopropylcarbonyl)-3-pyrrolidinyl]methyl}-2-[4-(1H-pyrrolo[2,3-b]pyridin-5-yl)phenyl]-1H-imidazo[4,5-c]pyridine] | 142 nM
5 | O=C(C1CC1)N1CC[C@@H](Cn2c(-c3ccc(-c4ccccc4)cc3)nc3c(Cl)ncnc32)C1 [Example 46, 8-(4-biphenylyl)-6-chloro-9-{[(3S)-1-(cyclopropylcarbonyl)-3-pyrrolidinyl]methyl}-9H-purine] | 129 nM

Stronger by IC50, values ahead:

Row | IC50 | Compound
6 | 19 nM | O=C(C1CC1)N1CC[C@@H](Cn2c(-c3ccc(-c4ccc5[nH]ccc5c4)cc3)nc3cnccc32)C1 [Example 25, 1-{[(3S)-1-(cyclopropylcarbonyl)-3-pyrrolidinyl]methyl}-2-[4-(1H-indol-5-yl)phenyl]-1H-imidazo[4,5-c]pyridine]
7 | 10 nM | O=C(C1CC1)N1CC[C@@H](Cn2c(-c3ccc(-c4ccc5scnc5c4)cc3)nc3cnccc32)C1 [Example 58, 2-[4-(1,3-benzothiazol-5-yl)phenyl]-1-{[(3S)-1-(cyclopropylcarbonyl)-3-pyrrolidinyl]methyl}-1H-imidazo[4,5-c]pyridine]
8 | 13 nM | O=C(C1CC1)N1CC[C@@H](Cn2c(-c3ccc(-c4cccc5[nH]ccc45)cc3)nc3cnccc32)C1 [Example 55, 1-{[(3S)-1-(cyclopropylcarbonyl)-3-pyrrolidinyl]methyl}-2-[4-(1H-indol-4-yl)phenyl]-1H-imidazo[4,5-c]pyridine]
9 | 45 nM | COc1ccc(-c2ccc(-c3nc4cccnc4n3C[C@@H]3CCN(C(=O)C4CC4)C3)cc2)cc1 [Example 27, 3-{[(3S)-1-(cyclopropylcarbonyl)-3-pyrrolidinyl]methyl}-2-[4′-(methyloxy)-4-biphenylyl]-3H-imidazo[4,5-b]pyridine]
10 | 9 nM | O=C(C1CC1)N1CC[C@@H](Cn2c(-c3ccc(-c4ccc5cc[nH]c5c4)cc3)nc3cccnc32)C1 [Example 35, 3-{[(3S)-1-(cyclopropylcarbonyl)-3-pyrrolidinyl]methyl}-2-[4-(1H-indol-6-yl)phenyl]-3H-imidazo[4,5-b]pyridine]
